In ChEMBL document CHEMBL3758089, “Giffonins J-P, Highly Hydroxylated Cyclized Diarylheptanoids from the Leaves of Corylus avellana Cultivar "Tonda di Giffoni"” (J Nat Prod, 2015):

System: U2OS
Test: Cytotoxicity against human U2OS cells expressing wild-type p53 after 24 hrs by crystal violet-staining based spectrophotometric assay
Type: functional, cell-based
Settings: not given

Q: Which EC50 does the source give for `C[C@H]1OC(Oc2c(-c3cc(O)c(O)c(O)c3)oc3cc(O)cc(O)c3c2=O)[C@@H](O)[C@@H](O)[C@@H]1O` (stereo partly drawn) here?
A: > 150 µM

Q: Which EC50 does the source give for `Oc1ccc2cc1-c1cc(ccc1O)C[C@H](O)[C@@H](O)[C@@H](O)C[C@@H](O)C2` here?
A: > 150 µM

Q: Which EC50 does the source give for `COc1c2cc(c(OC)c1O)Oc1ccc(cc1)[C@@H](O)C[C@@H](O)CC/C=C\2` here?
A: > 150 µM

Q: Which EC50 does the source give for `COc1c2cc(c(OC)c1O)Oc1ccc(cc1)[C@@H](O)C[C@@H](O)/C=C/C=C\2` here?
A: > 150 µM

Q: Which EC50 does the source give for `O=C1CCc2ccc(O)c(c2)-c2cc(ccc2O)C[C@H](O[C@@H]2O[C@H](CO)[C@H](O)[C@@H](O)[C@H]2O)C[C@H]1O` here?
A: > 150 µM

Q: Which EC50 does the source give for `O=C1CCc2ccc(O)c(c2)-c2cc(ccc2O)C[C@H](O)C[C@H]1O` here?
A: > 150 µM

Q: Which EC50 does the source give for `O=C1C[C@@H](O)Cc2ccc(O)c(c2)-c2cc(ccc2O)C[C@H](O)[C@H]1O` here?
A: > 150 µM

Q: For `COc1cc(/C=C/C(=O)CC(=O)/C=C/c2ccc(O)c(OC)c2)ccc1O` [CURCUMIN], which EC50 is on record?
A: 34.4 µM

Q: Which EC50 does the source give for `C[C@H]1OC(Oc2c(-c3ccc(O)c(O)c3)oc3cc(O)cc(O)c3c2=O)[C@@H](O)[C@@H](O)[C@@H]1O` (stereo partly drawn) here?
A: > 150 µM

Q: With `C[C@H]1OC(Oc2c(-c3ccc(O)cc3)oc3cc(O)cc(O)c3c2=O)[C@@H](O)[C@@H](O)[C@@H]1O` (stereo partly drawn) as the compound, how does the EC50 read?
A: > 150 µM

Q: For `C[C@H]1OC(Oc2c(-c3ccc(O)cc3)oc3cc(O)cc(O)c3c2=O)[C@@H](O)[C@@H](O)[C@@H]1OC(=O)/C=C/c1ccc(O)cc1` (stereo partly drawn), which EC50 is on record?
A: > 150 µM

Q: Which EC50 does the source give for `Oc1ccc2cc1-c1cc(ccc1O)C[C@H](O)[C@H](O)C(O)[C@@H](O)[C@H](O)C2` (stereo partly drawn) here?
A: > 150 µM

System: U2OS
Test: Cytotoxicity against human U2OS cells expressing wild-type p53 after 48 hrs by crystal violet-staining based spectrophotometric assay
Type: functional, cell-based
Settings: not given

Q: For `C[C@H]1OC(Oc2c(-c3cc(O)c(O)c(O)c3)oc3cc(O)cc(O)c3c2=O)[C@@H](O)[C@@H](O)[C@@H]1O` (stereo partly drawn), which EC50 is on record?
A: > 150 µM

Q: With `Oc1ccc2cc1-c1cc(ccc1O)C[C@H](O)[C@@H](O)[C@@H](O)C[C@@H](O)C2` as the compound, how does the EC50 read?
A: > 150 µM

Q: With `COc1c2cc(c(OC)c1O)Oc1ccc(cc1)[C@@H](O)C[C@@H](O)CC/C=C\2` as the compound, how does the EC50 read?
A: > 150 µM

Q: For `COc1c2cc(c(OC)c1O)Oc1ccc(cc1)[C@@H](O)C[C@@H](O)/C=C/C=C\2`, which EC50 is on record?
A: > 150 µM

Q: For `O=C1CCc2ccc(O)c(c2)-c2cc(ccc2O)C[C@H](O[C@@H]2O[C@H](CO)[C@H](O)[C@@H](O)[C@H]2O)C[C@H]1O`, which EC50 is on record?
A: > 150 µM

Q: Which EC50 does the source give for `O=C1CCc2ccc(O)c(c2)-c2cc(ccc2O)C[C@H](O)C[C@H]1O` here?
A: > 150 µM

Q: With `O=C1C[C@@H](O)Cc2ccc(O)c(c2)-c2cc(ccc2O)C[C@H](O)[C@H]1O` as the compound, how does the EC50 read?
A: > 150 µM

Q: With `COc1cc(/C=C/C(=O)CC(=O)/C=C/c2ccc(O)c(OC)c2)ccc1O` [CURCUMIN] as the compound, how does the EC50 read?
A: 22.8 µM

Q: With `C[C@H]1OC(Oc2c(-c3ccc(O)c(O)c3)oc3cc(O)cc(O)c3c2=O)[C@@H](O)[C@@H](O)[C@@H]1O` (stereo partly drawn) as the compound, how does the EC50 read?
A: > 150 µM

Q: Which EC50 does the source give for `C[C@H]1OC(Oc2c(-c3ccc(O)cc3)oc3cc(O)cc(O)c3c2=O)[C@@H](O)[C@@H](O)[C@@H]1O` (stereo partly drawn) here?
A: > 150 µM

Q: For `C[C@H]1OC(Oc2c(-c3ccc(O)cc3)oc3cc(O)cc(O)c3c2=O)[C@@H](O)[C@@H](O)[C@@H]1OC(=O)/C=C/c1ccc(O)cc1` (stereo partly drawn), which EC50 is on record?
A: > 150 µM

Q: With `Oc1ccc2cc1-c1cc(ccc1O)C[C@H](O)[C@H](O)C(O)[C@@H](O)[C@H](O)C2` (stereo partly drawn) as the compound, how does the EC50 read?
A: > 150 µM

System: not listed separately
Test: Cytotoxicity against human Saos2 cells […] after 24 hrs by crystal violet-staining based spectrophotometric assay
Type: functional, cell-based
Settings: SAOS-2, 24 h

Q: Which EC50 does the source give for `C[C@H]1OC(Oc2c(-c3cc(O)c(O)c(O)c3)oc3cc(O)cc(O)c3c2=O)[C@@H](O)[C@@H](O)[C@@H]1O` (stereo partly drawn) here?
A: > 150 µM

Q: Which EC50 does the source give for `Oc1ccc2cc1-c1cc(ccc1O)C[C@H](O)[C@@H](O)[C@@H](O)C[C@@H](O)C2` here?
A: > 150 µM

Q: Which EC50 does the source give for `COc1c2cc(c(OC)c1O)Oc1ccc(cc1)[C@@H](O)C[C@@H](O)CC/C=C\2` here?
A: > 150 µM

Q: For `COc1c2cc(c(OC)c1O)Oc1ccc(cc1)[C@@H](O)C[C@@H](O)/C=C/C=C\2`, which EC50 is on record?
A: > 150 µM

Q: With `O=C1CCc2ccc(O)c(c2)-c2cc(ccc2O)C[C@H](O[C@@H]2O[C@H](CO)[C@H](O)[C@@H](O)[C@H]2O)C[C@H]1O` as the compound, how does the EC50 read?
A: > 150 µM

Q: For `O=C1CCc2ccc(O)c(c2)-c2cc(ccc2O)C[C@H](O)C[C@H]1O`, which EC50 is on record?
A: > 150 µM

Q: For `O=C1C[C@@H](O)Cc2ccc(O)c(c2)-c2cc(ccc2O)C[C@H](O)[C@H]1O`, which EC50 is on record?
A: > 150 µM

Q: With `COc1cc(/C=C/C(=O)CC(=O)/C=C/c2ccc(O)c(OC)c2)ccc1O` [CURCUMIN] as the compound, how does the EC50 read?
A: 48.6 µM

Q: With `C[C@H]1OC(Oc2c(-c3ccc(O)c(O)c3)oc3cc(O)cc(O)c3c2=O)[C@@H](O)[C@@H](O)[C@@H]1O` (stereo partly drawn) as the compound, how does the EC50 read?
A: > 150 µM

Q: For `C[C@H]1OC(Oc2c(-c3ccc(O)cc3)oc3cc(O)cc(O)c3c2=O)[C@@H](O)[C@@H](O)[C@@H]1O` (stereo partly drawn), which EC50 is on record?
A: > 150 µM

Q: With `C[C@H]1OC(Oc2c(-c3ccc(O)cc3)oc3cc(O)cc(O)c3c2=O)[C@@H](O)[C@@H](O)[C@@H]1OC(=O)/C=C/c1ccc(O)cc1` (stereo partly drawn) as the compound, how does the EC50 read?
A: > 150 µM

Q: Which EC50 does the source give for `Oc1ccc2cc1-c1cc(ccc1O)C[C@H](O)[C@H](O)C(O)[C@@H](O)[C@H](O)C2` (stereo partly drawn) here?
A: > 150 µM

System: not listed separately
Test: Cytotoxicity against human Saos2 cells […] after 48 hrs by crystal violet-staining based spectrophotometric assay
Type: functional, cell-based
Settings: SAOS-2, 48 h

Q: For `C[C@H]1OC(Oc2c(-c3cc(O)c(O)c(O)c3)oc3cc(O)cc(O)c3c2=O)[C@@H](O)[C@@H](O)[C@@H]1O` (stereo partly drawn), which EC50 is on record?
A: > 150 µM

Q: Which EC50 does the source give for `Oc1ccc2cc1-c1cc(ccc1O)C[C@H](O)[C@@H](O)[C@@H](O)C[C@@H](O)C2` here?
A: > 150 µM

Q: Which EC50 does the source give for `COc1c2cc(c(OC)c1O)Oc1ccc(cc1)[C@@H](O)C[C@@H](O)CC/C=C\2` here?
A: > 150 µM

Q: Which EC50 does the source give for `COc1c2cc(c(OC)c1O)Oc1ccc(cc1)[C@@H](O)C[C@@H](O)/C=C/C=C\2` here?
A: > 150 µM

Q: With `O=C1CCc2ccc(O)c(c2)-c2cc(ccc2O)C[C@H](O[C@@H]2O[C@H](CO)[C@H](O)[C@@H](O)[C@H]2O)C[C@H]1O` as the compound, how does the EC50 read?
A: > 150 µM

Q: With `O=C1CCc2ccc(O)c(c2)-c2cc(ccc2O)C[C@H](O)C[C@H]1O` as the compound, how does the EC50 read?
A: > 150 µM

Q: For `O=C1C[C@@H](O)Cc2ccc(O)c(c2)-c2cc(ccc2O)C[C@H](O)[C@H]1O`, which EC50 is on record?
A: > 150 µM

Q: With `COc1cc(/C=C/C(=O)CC(=O)/C=C/c2ccc(O)c(OC)c2)ccc1O` [CURCUMIN] as the compound, how does the EC50 read?
A: 28.1 µM

Q: With `C[C@H]1OC(Oc2c(-c3ccc(O)c(O)c3)oc3cc(O)cc(O)c3c2=O)[C@@H](O)[C@@H](O)[C@@H]1O` (stereo partly drawn) as the compound, how does the EC50 read?
A: > 150 µM

Q: With `C[C@H]1OC(Oc2c(-c3ccc(O)cc3)oc3cc(O)cc(O)c3c2=O)[C@@H](O)[C@@H](O)[C@@H]1O` (stereo partly drawn) as the compound, how does the EC50 read?
A: > 150 µM

Q: Which EC50 does the source give for `C[C@H]1OC(Oc2c(-c3ccc(O)cc3)oc3cc(O)cc(O)c3c2=O)[C@@H](O)[C@@H](O)[C@@H]1OC(=O)/C=C/c1ccc(O)cc1` (stereo partly drawn) here?
A: > 150 µM

Q: With `Oc1ccc2cc1-c1cc(ccc1O)C[C@H](O)[C@H](O)C(O)[C@@H](O)[C@H](O)C2` (stereo partly drawn) as the compound, how does the EC50 read?
A: > 150 µM
